Test results taken from article PMC10702189, “Tetrazine Glycoconjugate for Pretargeted Positron Emission Tomography Imaging of trans-Cyclooctene-Functionalized Molecular Spherical Nucleic Acids” (ACS Omega, 2023).

Legend:
[1] = Ex vivo biodistribution in healthy Balb/cAnNrj mice
Protocol: (§1) Animal studies were approved by the national Project Authorization Board in Finland (licenses: ESAVI/12132/04.10.07/2017 and ESAVI/8648/2020) and were carried out in compliance with EU Directive 2010/EU/63 on the protection of animals used for scientific purposes. Healthy female Balb/cAnNrj mice (9–14 weeks old, 19 weeks old for fasting studies) were used for experiments with [^18F]FDG-Tz. Female Rj:Athymic-Foxn1^nu/nu mice (8–10 weeks old) bearing subcutaneous HER2-expressing HCC1954 tumors were used for pretargeted and control preclicked experiments with [^18F]TCO-MSNA, detailed information for the mice preparation was described earlier.[59] Animals were housed in individually ventilated cages under a 12 h light/dark cycle with ad libitum access to water and food unless otherwise stated. Animals were anesthetized with isoflurane (induction 4–5%, maintenance 1.5–2.5%, 0.4 L/min O2) and sacrificed by cervical dislocation after applying cardiac puncture for blood collection.
For [^18F]FDG-Tz ex vivo evaluation, the mice were sacrificed at 15 (n = 6), 30 (n = 4), and 60 min (n = 2) postinjection. [^18F]FDG-Tz distribution at 15 min postinjection was also studied in animals after fasting (n = 3, 4 h fasting prior to injection, water available ad libitum). Radiolabeled compound was administrated via the tail vein (1.8–11.4 MBq in 50–170 μL). For all experiments involving MSNA ex vivo measurements were performed after 60 min PET/CT imaging.
After sacrifice, tissue samples from organs of interest were dissected and weighed. Radioactivity was measured with a gamma counter (Triathler 3″; Hidex, Turku, Finland); the percentage injected radioactivity dose per gram of tissue (%ID/g) was calculated, corrected with the remaining radioactivity in the cannula, tail, and the syringe and decay-corrected to the time of injection.

[2] = In vivo dynamic PET/CT imaging in healthy Balb/cAnNrj mice; settings: dynamic PET
Protocol: as §1
For in vivo [^18F]FDG-Tz studies, four mice were injected with 4.0–4.8 MBq in 50–80 μL volume via the tail vein. Animals were imaged with Molecubes β-cube (PET) and X-cube (CT) (MOLECUBES NV, Ghent, Belgium) for 60 min and reconstructed into time frames 30 × 10, 15 × 60, 4 × 300 s, and 2 × 600 s. For pretargeted experiments as well as control imaging with preclicked [^18F]TCO-MSNA, Inveon Multimodality PET/CT (Siemens Medical Solutions, Knoxville, TN, USA) was used to perform dynamic PET with 6 × 10, 4 × 60, and 11 × 300 s time frames. For pretargeted imaging, TCO-MSNA (50 μL, 2.5 nmol of TCO) was injected 20 min prior to [^18F]FDG-Tz (63 ± 17 μL) administration via the tail vein. For all experiments two animals were imaged at the same time under isoflurane anesthesia. Mice were sacrificed immediately after imaging for ex vivo evaluation.
Image analysis was performed with Carimas software (version 2.10, Turku PET Centre, Turku, Finland). CT scans were utilized as an anatomical reference combined with the radioactivity signal from PET images. Regions of interest (ROIs) within the selected organs were defined in three dimensions. Blood pool results were obtained from the heart left ventricle cavity; tumor ROIs were drawn excluding the fluid-filled tumor core (Figure S13). Standardized uptake values (SUV) were calculated, corrected with the remaining radioactivity in the cannula, tail, and syringe, and decay-corrected to the time of injection.

[3] = Radioactivity distribution in blood components after i.v. injection in healthy mice; format: in vivo; settings: for Proportion of intact tracer in plasma: radio-HPLC
Protocol: To measure the radioactivity binding to blood cells, the blood obtained by cardiac puncture was placed into a lithium heparin tube, mixed according to the manufacturer’s instructions, and placed on ice. The blood sample was centrifuged at 4 °C for 5 min at 2118 × g. The plasma was separated by pipetting, and blood cells and plasma radioactivities were measured with a 1480 Wizard gamma counter (PerkinElmer/Wallac, Turku, Finland).
To determine the radioactivity portion bound to plasma proteins, plasma was mixed with an equal volume of acetonitrile and centrifuged at 14000 × g for 2 min at r.t. The radioactivity of both the supernatant and the protein pellet was measured with Wizard.
To determine the portion of intact tracer in plasma, a sample of deproteinized plasma supernatant was diluted with 0.1% TFA in water and analyzed with radio-HPLC.[60]

- Biodistribution difference between fasted and nonfasted animals ([1]; 15 min postinjection, 4 h fasting): no statistically significant difference
- Organ accumulation in awake versus isoflurane anesthetized animals ([1]; 60 min after i.v. injection): trend of lower accumulation
- Blood radioactivity ([1]; i.v., 60 min postinjection): 0.9 ± 0.3 %ID/g
- Brain uptake ([1]; i.v., 60 min postinjection): 0.08 ± 0.03 %ID/g
- Gallbladder radioactivity ([1]; i.v., 60 min postinjection): 7.0 ± 0.7 %ID/g
- Kidneys radioactivity ([1]; i.v., 60 min postinjection): 1.2 ± 0.4 %ID/g
- Liver radioactivity ([1]; i.v., 60 min postinjection): 3.2 ± 1.0 %ID/g
- Tibia bone radioactivity (defluorination) ([1]; i.v., 60 min postinjection): 0.26 ± 0.04 %ID/g
- Heart SUV ([2]; 0.6 min): 5.06 ± 4.25 SUV
- Blood SUV ([2]; 0.8 min): 5.26 ± 2.69 SUV
- Brain SUVpeak ([2]; 0.8 min): 0.33 ± 0.20 SUV
- Liver SUV ([2]; 4.5 min): 5.63 ± 1.11 SUV
- Blood SUV ([2]; 60 min): 0.43 ± 0.06 SUV
- Brain SUV ([2]; 60 min): 0.05 ± 0.01 SUV
- Heart SUV ([2]; 60 min): 0.41 ± 0.05 SUV
- Liver SUV ([2]; 60 min): 2.00 ± 0.57 SUV
- Blood cell binding of radioactivity ([3]; 15 min postinjection): 37.6% ± 3.0
- Plasma protein binding of radioactivity ([3]; 15 min postinjection): 9.1% ± 3.5
- Blood cell binding of radioactivity ([3]; 60 min postinjection): 58.1%
- Plasma protein binding of radioactivity ([3]; 60 min postinjection): 22.7%
- Proportion of intact tracer in plasma ([3]; 60 min postinjection): 52%
- Proportion of intact tracer in plasma ([3]; first time point (15 min, n = 3)): 93.7% ± 5.1
Compound: O=C(CCON=C[C@H]([18F])[C@@H](O)[C@H](O)[C@H](O)CO)NCc1ccc(-c2nncnn2)cc1 [[^18F]FDG-Tz]
